Results from ChEMBL document CHEMBL5150022, “Small Molecule Inhibitors of Lymphocyte Perforin as Focused Immunosuppressants for Infection and Autoimmunity” (J Med Chem, 2022).

Legend:
[1] = target: Perforin-1 (Mus musculus) (UniProt P10820); assay: Inhibition of recombinant Perforin-1 (mouse)
[2] = target: Perforin-1 (Mus musculus) (UniProt P10820); assay: Inhibition of Perforin-1 in human Jurkat cells

Sequence of Perforin-1 (Mus musculus) (P10820 whole entry, looked up): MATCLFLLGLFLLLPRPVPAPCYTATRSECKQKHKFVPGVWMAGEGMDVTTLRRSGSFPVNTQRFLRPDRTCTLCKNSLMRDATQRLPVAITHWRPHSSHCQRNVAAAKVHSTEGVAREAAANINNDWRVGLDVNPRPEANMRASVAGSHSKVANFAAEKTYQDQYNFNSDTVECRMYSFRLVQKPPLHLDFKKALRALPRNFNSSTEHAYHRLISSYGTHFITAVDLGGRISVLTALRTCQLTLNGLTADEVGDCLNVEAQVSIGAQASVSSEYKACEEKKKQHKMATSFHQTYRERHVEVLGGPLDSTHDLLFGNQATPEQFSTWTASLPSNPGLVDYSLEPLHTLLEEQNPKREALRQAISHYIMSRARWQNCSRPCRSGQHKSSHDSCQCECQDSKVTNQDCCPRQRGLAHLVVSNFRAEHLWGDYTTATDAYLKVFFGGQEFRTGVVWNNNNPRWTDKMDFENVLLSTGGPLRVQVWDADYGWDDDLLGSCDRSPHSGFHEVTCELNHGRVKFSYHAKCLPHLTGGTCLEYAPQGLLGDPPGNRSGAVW

| Compound | IC50 [1] | IC50 [2] |
| --- | --- | --- |
| O=C1NCCc2ccc(-c3ccc(-c4cncc(NS(=O)(=O)c5ccc(F)cc5F)c4)s3)cc21 | > 20 µM | – |
| O=C1NCCc2cc(-c3ccc(-c4cncc(NS(=O)(=O)c5ccc(F)cc5F)c4)s3)ccc21 | > 20 µM | – |
| CN1CCc2cc(-c3ccc(-c4cncc(NS(=O)(=O)c5ccc(F)cc5F)c4)s3)ccc2C1=O | > 20 µM | – |
| Cc1ccc2c(c1)C(c1ccc(-c3cncc(NS(=O)(=O)c4ccc(F)cc4F)c3)s1)N(C)C2=O (stereo not given) | > 20 µM | – |
| Cc1cc2c(c(=S)[nH]1)C(=O)O/C2=C\c1ccc(C)o1 | – | 2.7 µM |
